Experimental data reported in patent US12390435B2, “Electrophiles and electrophile pro-drugs as RAD51 inhibitors” (University of Pittsburgh—Of the Commonwealth System of …, priority 2018, dated 2025).

Assays:
[1] = test system: NF-κB transcriptional activity; experiment: NF-κB luciferase reporter; format: cell-based; settings: MDA-MB-231 and MDA-MB-468 cells, 5 μM 2 hr then TNFα 20 ng/mL 4 hr
Experimental: Luciferase-chemiluminescence-based analysis of NF-κB transcriptional activity was performed. MDA-MB-231 and MDA-MB-468 cells (˜70% confluence) in 12-well plates were transiently transfected with a NF-κB-luciferase reporter plasmid (Stratagene, La Jolla, CA) with Lipofectamine 3000. […] Each transfection was performed in triplicate. Luciferase activity was measured using the Dual-luciferase assay kit (Promega). Relative light units (RLU) were measured using a 96-well plate luminometer, according to the manufacturer's instructions (Victor II, PerkinElmer Life Sciences). Protein concentration was determined using the BCA Assay (Thermo Fisher Scientific). Data represents the ratio of treated samples to controls in the context of mean RLU/protein content, +/−SD. Three individual experiments were done, and statistical significance was determined by Kruskal-Wallis test followed by Dunn's post-test with Bonferroni corrections for multiple comparisons.

IKKβ = experiment: TNFα-induced IKKβ phosphorylation, IκBα phosphorylation and degradation; format: cell-based
Experimental: All studies used two TNBC cell lines, MDA-MB-231 and MDA-MB-468. […] For IκBα degradation, cells were treated as described above and stimulated with 20 ng/mL TNFα for 10 min.
(§1) Western blotting was performed. 20-60 μg of total lysates per lane were loaded on 7%, 10%, or 12% SDS-PAGE and transferred onto nitrocellulose or polyvinylidene difluoride membranes (Bio-Rad). The membranes were probed with primary antibodies against caspase-3, multi-drug resistance protein-1 (MRP1), poly [ADP ribose] polymerase-1 (PARP-1), ubiquitin, RelA; cyclin D1, p21, caspase-9, MRP4, IKKβ, pIKKβ, IκBα, or pIκBα (Cell Signaling); caspase-8 (R&D Systems). Samples were normalized to β-actin (Sigma-Aldrich) or GAPDH (Trevigen).

[2] = test system: MDA-MB-231 and MDA-MB-468 cells; experiment: MTT viability / cytotoxicity; format: cell-based
RelA in MCF-10A cells = experiment: RelA protein level; format: cell-based; settings: 5 μM, 24 hr
Experimental: as §1

RAD51 and ABL core = molecular target: T1, RAD51 and ABL core (Homo sapiens, UniProt Q06609); experiment: In vitro RAD51-ABL binding assay; format: biochemical; settings: purified proteins, 0, 100 or 500 nM, 1 h
T1 construct: His; made in house; host or cells: E. coli BL21(DE3)pLysS
Experimental: FIGS. 3A-3I. […] FIG. 3A. […] FIG. 3B. […] FIG. 3C. […] Three independent experiments were quantified and analyzed by one-way ANOVA * p<0.05. FIG. 3D. […] FIG. 3E. […] FIG. 3F. […] Purified RAD51 and ABL core proteins were incubated with OA-NO2 at 0, 100 or 500 nM for 1 h and ABL was precipitated. The amount of bound RAD51 was detected by immunoblot. FIG. 3G. […] RAD51 interactions with ABL and phosphorylated RAD51 Y315 were probed by IP and immunoblot. FIG. 3H. […] Cells were incubated with biotinylated NO2-OA and then lysates were precipitated with streptavidin coated agarose and detected by immunoblot. FIG. 3I.
Recombinant His-tagged RAD51 in the pET21a vector were transformed into E. coli BL21(DE3)pLysS cells (EMD Millipore) and purified.

[3] = test system: MDA-MB-231 and MDA-MB-468 cells; experiment: Western blot of cell cycle and apoptosis proteins; format: cell-based; settings: 5 μM, 24 hr
Experimental: as §1

MCF-10A cells = experiment: Western blot of cell cycle and apoptosis proteins; format: cell-based; settings: 5 μM, 24 hr
Experimental: as §1

RelA = molecular target: T2, RelA (Homo sapiens, UniProt Q04206); experiment: Biotinylated NO2-FA protein alkylation pull-down and proteomics; format: binding; settings: recombinant RelA protein
T2 construct: endogenous in cells; host or cells: MDA-MB-231, MDA-MB-468
Experimental: After 2 hr cells were harvested in lysis buffer containing 1% Triton X, 10% glycerol, 150 mM NaCl, 10 mM HEPES, 1 mM EDTA, 1 mM EGTA, and supplemented with a mixture of protease and phosphatase inhibitors (Roche Applied Science). Total cell lysates (0.5-1 mg) were mixed and incubated with streptavidin agarose beads (Sigma-Aldrich) at 4° C., overnight. Beads were washed three times using lysis buffer. After SDS-PAGE, immunoblotting was performed using anti-RelA mouse monoclonal antibody (Santa Cruz Biotechnology) or anti-IKKβ rabbit polyclonal antibody (Cell Signaling). Proteomics analysis for the alkylation of RelA by NO2-OA was also conducted using recombinant RelA protein and LC-MS/MS analysis.

RAD51 = molecular target: T3, RAD51 (Homo sapiens, UniProt Q06609); experiment: RAD51 ssDNA binding, fluorescence polarization; format: biochemical; settings: 5 or 10 μM, ATP and Alexa Fluor 488 DNA
T3 construct: purchased Abcam
Experimental: Reactions were performed in black 96-well plates (Greiner) in 50 μL reaction volumes in 20 mM HEPES pH 7.5, 10 mM MgCl2, 0.25 μM BSA, 2% glycerol, 30 mM NaCl and 4% DMSO. […] 2 mM ATP and 100 nM 5′-Alexa Fluor 488 ssDNA poly-dT (Integrated DNA technologies) were added to the reaction and incubated for 90 min at 37° C. DNA binding was measured using fluorescence polarization (FP) on a Tecan Spark 20M (ex/em 480 nm/535 nm). Compound fluorescence quenching was detected as above in the absence of RAD51 protein.

T2 sequence (Q04206 whole entry): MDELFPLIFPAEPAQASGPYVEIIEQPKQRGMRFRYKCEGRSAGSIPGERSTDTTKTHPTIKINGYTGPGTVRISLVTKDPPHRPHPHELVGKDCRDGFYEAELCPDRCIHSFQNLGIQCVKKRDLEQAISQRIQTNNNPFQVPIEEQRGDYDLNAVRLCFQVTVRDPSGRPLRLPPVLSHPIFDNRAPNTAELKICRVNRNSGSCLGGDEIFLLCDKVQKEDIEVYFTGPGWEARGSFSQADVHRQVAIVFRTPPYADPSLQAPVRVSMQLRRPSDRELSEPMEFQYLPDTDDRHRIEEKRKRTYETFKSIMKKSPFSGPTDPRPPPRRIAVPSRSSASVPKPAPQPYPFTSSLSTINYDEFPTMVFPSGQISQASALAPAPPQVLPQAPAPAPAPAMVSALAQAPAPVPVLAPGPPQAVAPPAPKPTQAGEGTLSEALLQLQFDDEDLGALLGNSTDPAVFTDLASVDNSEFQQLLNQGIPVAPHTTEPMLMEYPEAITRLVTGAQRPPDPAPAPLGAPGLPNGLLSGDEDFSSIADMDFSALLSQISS
T1 sequence (Q06609 whole entry): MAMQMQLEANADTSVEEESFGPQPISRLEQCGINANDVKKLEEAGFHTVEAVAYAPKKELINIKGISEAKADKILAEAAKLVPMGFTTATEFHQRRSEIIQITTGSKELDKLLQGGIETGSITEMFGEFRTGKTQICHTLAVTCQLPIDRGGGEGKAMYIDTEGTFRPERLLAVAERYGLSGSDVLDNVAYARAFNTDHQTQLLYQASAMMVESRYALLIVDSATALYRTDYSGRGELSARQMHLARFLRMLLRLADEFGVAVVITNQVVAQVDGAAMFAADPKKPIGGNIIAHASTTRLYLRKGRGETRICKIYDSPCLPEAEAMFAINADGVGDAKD
T3 sequence (Q06609 whole entry): as above

CCCCCCCCC(=CCCCCCCCC(=O)O)[N+](=O)[O-] [NO2-OA, 10-nitro-octadec-9-enoic acid]
NF-κB-dependent transcription of luciferase [1]: significantly inhibited | TNFα-induced IKKβ phosphorylation (IKKβ; NO2-OA 5 μM or BAY11-7082 10 μM 2 hr, TNFα 20 ng/mL 5 min): diminished | degradation of IκBα following TNFα stimulation (IKKβ; TNFα 20 ng/mL, 10 min): inhibited the degradation of IκBβ | IκBα phosphorylation (IKKβ; with proteasome inhibitor MG-132 10 μM): decreased IκBβ phosphorylation | cell viability (MTT) [2]: significantly reduced the viability | cytotoxicity ([2]; 5 μM, up to 24 hr, any cell line): No cytotoxicity was detectable | RelA protein levels (RelA in MCF-10A cells): not altered | RAD51-ABL core complex formation (RAD51 and ABL core): abolished | PARP-1 cleavage [3]: promoted caspase-3-mediated cleavage of PARP-1 | caspase-8 and caspase-9 cleavage [3]: increased cleavage of caspase-8 and caspase-9 | p21 and cyclin D1 protein expression [3]: an increase in p21 and a decrease in cyclin D1 protein expression | PARP-1 cleavage (MCF-10A cells): but not in MCF-10A cells | RelA Cys105 alkylation (LC-MS/MS proteomics) (RelA): alkylated | relative fluorescence polarization of RAD51 with ssDNA (RAD51): decreased the relative polarization of RAD51
